Laboratory results taken from patent publication US20230102840A1, “COMPOSITIONS AND METHODS RELATING TO COMBINATORIAL HYALURONIC ACID CONJUGATES” (PRESIDENT AND FELLOWS OF HARVARD COLLEGE, priority 2020, published 2023).
≈ marks a conversion by molar mass, not a printed value.

Legend:
BMDM [1] = test: Viability of BMDM after 48 h treatment; assay type: cell-based
Experimental: Immune cells system as macrophages and dendritic cells are responsible for the initiation of immune responses, and are the prime target for immunostimulatory drugs. To verify that the HA-RES conjugate is not toxic for immune cells, BMDM were treated with increasing concentrations of RES or HA-RES for 48 h.
The inventors also tested the effect of BEX and its HA conjugate on the viability of BMDM by exposing them to increasing concentration ranging from (0.39-50 μM).

BMDM [2] = test: BMDM polarization (M1/M2 marker expression); assay type: cell-based; conditions: 48 hr, vs untreated cells
Experimental: To further elucidate the effect of HA-RES and HA-BEX and their combination on macrophage phenotyping the inventors studied their effect on macrophage polarization. BMDMs were treated with different concentrations of RES and HA-RES for 48 hr. (FIG. 6A)
The expression of several markers associated with M1 and M2 phenotypes was evaluated.

[3] = system: B16F10-Luc melanoma cells; test: Cytotoxicity study on B16F10-Luc cells; assay type: cell-based; conditions: 48 h
Experimental: (§1) 5×10^3 B16F10-Luc cells were seeded in 96 well plates and allowed to adhere overnight. For establishment for a coculture, B16F10 cells were cocultured with BMDM at a ratio of 1:10 (5×10^3 B16F10: 5×10^4 BMDM per well). The next day, the media was aspirated and replaced with increasing concentration of the free drugs, combination and the HA-conjugates with equivalent free drug concentrations and cells were incubated with the drug solutions for 48 h after which the treatment was aspirated and replaced with 0.5% Xenolight-D-luciferin potassium salt solution in complete DMEM. Finally, cellular viability was assessed by reading the luminescence of the solution from each well after 5 min using BioTek plate reader. Untreated cells were used as controls.

[4] = system: B16F10-Luc melanoma cells cocultured with BMDM; test: Cytotoxicity study, B16F10-Luc cocultured with BMDM; assay type: cell-based; conditions: coculture with BMDM; compared with B16F10 alone
Experimental: as §1

A431 cells = test: In vitro cytotoxicity on A431 cells; assay type: cell-based; conditions: Homo sapiens, A-431; 48 h, alamar blue
Experimental: A431 cells were cultured in DMEM media supplemented with 10% FBS, 1% Pen Strep. The cells were passaged 3-4 times prior to setting up the assay. […] Cells were cultured in a humidified incubator maintained at 37° C. and 5% C02 (Thermo scientific, USA). A431 Cells (5×10^3 in 100 ul in complete DMEM) were seeded in 96 well plates and allowed to adhere overnight. The next day, cell culture media was aspirated and replaced with the different treatments. The cells were incubated with the drug solutions for 48 hr after which the treatment was aspirated and replaced with 10% alamar blue (AB) solution in complete DMEM and incubated for an additional 3.5 h in the dark at 37° C. […] Finally, cellular viability was assessed by reading the florescence of the solution from each well at λex=560 nm and λem=590 nm. […] Baseline fluorescence levels from wells without cells were subtracted from each data (Dose response curves were fit to each drug and/or polymer drug conjugate with the median effect model^[28]. For combination treatment, synergy was quantified with the combination index^[29]

[5] = system: primary human fibroblasts; test: Cell viability study in primary human fibroblasts; assay type: cell-based; conditions: increasing concentrations, 48 h, relative to the untreated control
Experimental: Primary human fibroblast (seeded at density 5,000 cells/well) and primary human keratinocytes (at density 2,000 cells/well) were used for the cytotoxicity studies in vitro. The culture media used for the keratinocytes was keratinocyte serum free medium supplemented with L-glutamine, EGF and BPE while that for fibroblasts was Dulbecco's Modified Eagle's Medium-high glucose supplemented with 2% penicillin/streptomycin and 5% FBS. Cells were incubated in a humidified incubator under 5% CO2 at 37° C. After 24 h, 50 μL of the media were withdrawn and replaced by 50 ul of increasing concentrations of each treatment reaching a final volume of 100 μL in the well. Cells were incubated for 48 h under standard cell culture conditions after which cell viability was assessed by AB assay as previously described.

[6] = background statement; cited from earlier work

SMILES	viability of BMDM (BMDM [1]; 50 uM)	viability of BMDM (BMDM [1]; all concentrations tested up to 25 uM (range 0.39-50 μM))	expression of CD206 (M2 marker) (BMDM [2])	IC50 ([3]; Mus musculus, B16-F10, luminescence viability)	IC50 in the presence of MAC [4]	IC50 (A431 cells)	viability of primary human dermal fibroblasts [5]	aqueous solubility [6]	viability of BMDM (BMDM [1]; increasing concentrations, 48 h, all concentrations tested)	cytotoxic effect on melanoma cells ([3]; B16F10-Luc alone)
C=C(c1ccc(C(=O)O)cc1)c1cc2c(cc1C)C(C)(C)CCC2(C)C [BEX, Bexarotene]	significant decrease in the cells viability	didn't alter the viability	significant reduction	25 µM	same IC50	60.3 µM	did not significantly affect the cell viability	~10 µM (≈ 3.48 µg/mL)		
CCOCc1nc2c(N)nc3ccccc3c2n1CC(C)(C)O [RES, Resiquimod]									marked increase in cell viability	negligible cytotoxic effect
O=C(CCCCCCC(=O)Nc1ccccc1)NO [VOR, Vorinostat]							did not significantly affect the cell viability			
